This note sets out measurements from patent US20240252463A1, “METHODS OF TREATING FIBROTIC PATHOLOGIES” (Mayo Foundation for Medical Education and Research, priority 2018, published 2024).

Like-named read-outs stand apart in the source and are kept apart here.

What all share (type): cell-based, human
One test has as its system αSMA. The test is described as follows: αSMA intensity (fibroblast activation) in IPF patient-derived lung fibroblasts + TGFβ. The following applies: Homo sapiens, SMA, 1 μM + TGFβ, treated for 72 hours.
The next test concerns cAMP. Kind of test: cAMP Assay (cAMP-Glo) in lung fibroblasts. The following applies: IPF patient-derived fibroblasts, 20 minutes, DHX 10 μM. Here is the method:
cAMP Assay: IPF patient derived fibroblasts were plated in EMEM containing 10% FBS overnight. […] 20 minutes prior to cell lysis media was removed and cells were treated with “induction buffer” containing nonselective phosphodiesterase inhibitors and the indicated concentration of compound(s). Luminescence was measured on a Flexstation 3 (Molecular Devices) plate reader.

In a further test the test system is YAP/TAZ. The test is described as follows: YAP/TAZ nuclear localization in IMR-90 and other mesenchymal cells (cardiac, dermal fibroblasts, hepatic stellate cells). Here is the method:
FIGS. 2A-2E Dopamine Receptor D1 agonism blocks YAP/TAZ nuclear localization. 2a. Selective agonists of dopamine receptor D1 with varying efficacy inhibit YAP/TAZ nuclear localization; this effect can be overcome by treatment with a DRD1 receptor antagonist (SCH 39166, 3 μM), (Dihydrexidine, 10 μM). IMR-90 cells treated 2 hours prior to fixation. N=4 (****p<0.0001 vs. 0.1% DMSO vehicle control). Scale bar represents 100 μm. 2b. Consistent with DRD1 expression, DHX inhibits YAP/TAZ only in fibroblasts (IPF-FBs) but not in epithelial (NHEpCs) or endothelial (NHMVECs) cells. N=4 (****p<0.0001 vs. 0.1% DMSO vehicle control) 2c. YAP/TAZ localization is induced through multiple ligands which stimulate receptors coupled to Galphαi/q/12, endothelin 1 (ET-1: 100 nM), lysophosphatidic acid (LPA: 10 μM), and serotonin (5-HT: 1 μM). In each case DHX treatment (10 μM) can reverse this effect on YAP/TAZ. IMR-90 cells plated densely onto plastic cell culture plates for 24 hours in media containing 0.1% FBS, treated for 2 hours prior to fixation. N=4 (****p<0.0001 vs. 0.1% DMSO vehicle control), (++++p<0.0001 vs. the respective stimulated agonist ET-1, LPA, or 5-HT). Scale bar represents 100 μm. 2d. cAMP measured in IPF patient-derived fibroblasts treated for 20 minutes with DHX (10 μM)+/−SCH 39166 (3 μM). N=3 (**p<0.01 vs. 0.1% DMSO vehicle control). 2e. Phosphorylation of YAP by Rho-kinase inhibitor Y27632 (20 μM), direct cAMP stimulator Forskolin (10 μM), or DHX (10 μM). IMR-90 cells cultured for 24 hours in media containing 0.1% FBS, treated 2 hours prior to fixation. N=3 (***p<0.001 vs. 0.1% DMSO vehicle control).
FIGS. 6A-6C DHX inhibits YAP/TAZ localization in fibroblasts from multiple tissues. 6a. Mesenchymal cells derived from lung (IMR-90 and IPF-FBs) hepatic stellate cells (HSC), human adult cardiac fibroblasts, (HACF) and human dermal fibroblasts (HDF) were plated densely (Confluent) or sparsely (Control and all remaining conditions) onto plastic cell culture plates for 24 hours in media containing 0.1% FBS, treated for 2 hours with Rho kinase inhibitor Y27632, adenylate cyclase activator forskolin and DHX. N=4, Cells that were positive for nuclear YAP/TAZ were quantified by automated image analysis. 6b. Time course for DHX inhibition of YAP/TAZ nuclear localization. IMR-90 cells, N=3 (***p<0.001 vs. 0.1% DMSO vehicle control). 6c. […] N=3.
ImmunofluorescenceMicroscopy: Cells were plated into 96 well plates (Corning 3603) in their specific growth media and allowed to attach (8 hours). Media was then exchanged for the indicated conditions for each experiment. Cells were fixed in 3.7% formalin (Sigma-Aldrich), permeabilized in 0.25% Triton X-100 (Sigma-Aldrich) and then blocked with 1% BSA for 1 h. Cells or tissue sections were incubated overnight with mouse monoclonal antibody against αSMA (Sigma-Aldrich F3777), and/or a rabbit monoclonal antibody against YAP/TAZ (Cell Signaling D24E4) diluted 1:200 in PBS with 1% BSA. Cells were then washed and exposed to flourescence-conjugated secondary antibodies (Invitrogen) diluted 1:1000 and DAPI (Thermo Fisher Scientific). Images were taken with a Cytation5 (BioTek) microscope. For scoring αSMA positive cells (FIG. 3b), an observer blinded to the treatment conditions counted αSMA-positive cells using a visual threshold for bright fibrous staining; a minimum of 200 cells was counted for each condition. YAP/TAZ localization was quantified (FIG. 2, 6, 8) using Gen5 (Biotek) software. Images were taken at 4× magnification of both DAPI and YAP/TAZ staining. […] Quantification of double positive (YAP/TAZ and αSMA) cells from lung tissue sections (FIG. 4d) was performed similarly; however separate thresholds were established for both YAP/TAZ and αSMA. A minimum of 4000 cells was quantified for each mouse.

Take `Oc1cc2c(cc1O)[C@H]1c3ccccc3CN[C@@H]1CC2` (racemic) [Dihydrexidine, dihydrexidine]: the activity at 1 µM with αSMA (patient sample IPF-1, read-out: αSMA intensity (% of DMSO control) IPF-1) is 4.98%; in the test on αSMA (patient sample IPF-2, read-out: αSMA intensity (% of DMSO control) IPF-2) it was 0.0469%; with αSMA (patient sample IPF-3, read-out: αSMA intensity (% of DMSO control) IPF-3), 0.513%; in the test with αSMA (patient sample IPF-4, read-out: αSMA intensity (% of DMSO control) IPF-4) it was 12%. Also, in the test with cAMP, the cAMP entry was “elevated cAMP”. In addition, in the test with YAP/TAZ (FIG. 6c), the “potency of inhibition of YAP/TAZ nuclear localization, normal lung fibroblasts vs IPF-derived” value is on record as “equally potent”. Further, in the test with YAP/TAZ (cardiac and dermal fibroblasts and hepatic stellate cells (FIG. 6)), the “YAP/TAZ nuclear localization across a panel of mesenchymal cell types” value was “effective at inhibiting YAP/TAZ nuclear localization”. Besides, in the test with YAP/TAZ (confluent IMR-90, DHX 10 μM, 2 hours (FIG. 2c)), the “YAP/TAZ nuclear localization induced by endothelin-1, lysophosphatidic acid and serotonin” value is on record as “blocked nuclear localization of YAP/TAZ”. Besides, the YAP/TAZ nuclear localization entry in the test with YAP/TAZ (fibroblasts on stiff matrix (plastic), IMR-90 cells treated 2 hours (FIG. 2a)) is recorded as “reduced nuclear localization of YAP/TAZ”.
